Here are results for eight substances from patent publication US5792457A, “Antibody recognizing endothelial cell ligand for leukocyte CR3” (priority 1995, dated 1998).

The subject of series [1] is 125I-Factor X binding to human neutrophils (CD11b/CD18). Briefly: Inhibition of 125I-Factor X binding to neutrophils. It is filed as cell-based. To be noted: for inhibition of 125I-Factor X binding to neutrophils: peptides 0.5 mM, native FHA 0.3 μM. The method, then:
FIG. 15 is a bar graph representation of the inhibition of ^125 I-Factor X binding to neutrophils by FHA, FHA- or Factor X-peptides as identified in Table 6. The concentration of inhibiting substances was: peptides 0.5 mM, native FHA 0.3 μM. Values represent the mean±standard deviation of triplicate experiments.
FIG. 16 is a graphical representation of the FHA, FHA- or Factor X-peptide concentration effect on the inhibition of ^125 I-Factor X binding to neutrophils. FHA peptide II (Square) and Factor X peptide II (Circle) at 10^-2 to 5×10^2 μM; FHA at 10^-6 to […] (triangle). Values are representative of triplicate experiments (standard deviations <15%).
Human Factor X (Sigma or Hematologic Technologies Inc.) was labeled with ^125 I using Iodogen (Pierce Chemical Co.) Human neutrophils were isolated from heparinized blood according to the manufacturer's specification using Neutrophil Isolation Medium (Cardinal Associates, Santa Fe, N. Mex.) and washed three times with 5 mM EDTA-phosphate-buffered saline (PBS), pH 7.2, at 4° C. To eliminate platelet contamination, neutrophils were incubated with autologous serum containing 5 mM EDTA for 30 mins. at 37° C., washed three times with ice-cold PBS, pH 7.2, and resuspended in RPMI 1640 tissue culture medium (Whittaker M.A. Bioproducts, Walkersville, Md.) at 4° C. Binding of ^125 I-Factor X to neutrophils was measured based on a method described by Altieri et al. (1991) Science 254: 1200-1202. Briefly, 200 μl of neutrophils (1.5×10^7 /ml) were supplemented with 17.5 μl of 50 mM CaCl2, stimulated with 3.5 μl of 100 μM NH2 -formyl-Met-Leu-Phe (Sigma), and mixed with 30 μl of 10.3 μg/ml ^125 I-Factor X and 100 μl of 1.75 mM of peptide. Buffer alone and a peptide of scrambled sequence served as controls in each of the 3 experiments. After incubation for 20 mins. at room temperature, neutrophil-bound ^125 I-Factor X was separated from unbound ^125 I-Factor X by centrifugation of 300 μl aliquots through 50 μl of a mixture of Hi phenyl silicone oil DC 550 and methyl silicone oil DC 200 5:1 (Nye Inc. Specialty Lubricants, New Bedford, Mass.) at 12,000×g for 2 mins. Aliquots of the supernatant (cell free ^125 I-Factor X) and the cell pellet (cell bound ^125 I-Factor X) were counted in a gamma-counter. Nonspecific binding (~50,000 cpm) was determined by adding a 100 fold excess of unlabeled Factor X, and subtracted from total radioactivity (~500,000 cpm for controls).

Series [2] deals with Factor X binding to CR3. Conditions: cited from earlier work.
Series [3] can be described thus: Stability of FHA II peptide in 50% rabbit plasma. To be noted: 37° C. It is filed as in vitro ADME.
Procedure: To determine the stability of the FHA II peptide, the unmodified or the acetylated-amidated peptide were incubated in 50% rabbit plasma at 37° C.
In series [4] the test system is peripheral white blood cells. Briefly: Rat meningitis model: peripheral white blood cell concentrations. The class given is in vivo, female Wistar rats. Conditions: following i.v. administration. On the procedure: (§1) Three hours after LOS inoculation, 5 μCi of ^125 I-radiolabelled albumin in 50 μl normal saline was administered intravenously. One hour later, CSF was collected via intracisternal puncture and blood samples were collected via intracardiac puncture. CSF leukocytosis was determined by manually counting white blood cells using a hemacytometer, and blood-brain barrier permeability was determined as the percent of radioactivity in whole blood that was present in the CSF. Blood samples were obtained immediately prior to inoculation, immediately prior to treatment, and at 4 hours post-inoculation for determination of peripheral white blood cell concentrations.

Series [5] has as its target T1, CD11b/CD18 (Homo sapiens, UniProt P05107+P11215).
T1 construct: peptide-coated wells, C3bi-erythrocyte rosetting
Briefly: Downmodulation of CD11b/CD18 on macrophages (binding of C3bi-coated erythrocytes). It is filed as cell-based. To be noted: peptides 0.5 mM. On the procedure: FIG. 27 is a bar graph representation of the downmodμlation of CD11b/CD18 by FHA-peptides. mAb IB4 (50 μg/ml) served as a positive control. Data represent means±standard deviations of triplicate experiments with 6 wells/peptide.
Human monocytes were purified from buffy coats on Percoll gradients and cultured in 12.5% human serum in Teflon beakers. Macrophages were harvested from Teflon beakers after 6-8 days and suspended in HAP buffer. Terasaki wells were coated with 5 μl of peptides (0.5 mM) or anti-CD18 mAb IB4 (50 μg/ml). Control wells were coated with HAP. After 2 hours of incubation at RT, 5 μl of macrophages (5×10^5 /ml HAP) were added and allowed to spread for 45 mins. at 37° C. […] IgM-coated erythrocytes in buffer served as negative control. After washing, the number of erythrocytes bound per 100 leukocytes (adherence index) was quantitated visually under an inverted microscope.

Series [6] concerns cerebral infarct. Description: Rat transient middle cerebral artery occlusion (MCAO): infarct volume. It is filed as in vivo, male Wistar rats. To be noted: 50 nmol i.v. at reperfusion then 150 nmol i.p.; 2 hour MCAo, 2 day survival.
The test system of series [7] is blood-brain barrier permeability. Description: Rat meningitis model (LOS): blood-brain barrier permeability (125I-albumin). It is filed as in vivo, female Wistar rats. Conditions: for BBB permeability: percent of radioactivity in whole blood present in CSF. The method, then: Briefly, anesthetized female Wistar rats were placed under a micromanipulator and inoculated intracisternally with a 25 gauge needle. After removal of 50 μl of CSF (without visible blood contamination), rats were inoculated intracisternally with 50 μl (20 ng) of LOS using a 1 ml syringe with a 25 gauge needle. Ten to fifteen minutes after inoculation with LOS, the rats were treated by intravenous administration of the test substance: a solution of an FHA peptide in PBS, a solution of a control peptide in PBS, or an equal volume of PBS alone.
as §1

Series [8] has as its system recognition of C3bi by antibody 12.1F9. Briefly: Inhibition of binding of 12.1F9 to E^C3bi by peptides. The arrangement: species or system human. Conditions: peptides 50 μg/ml. The source says:
Values are normalized to a control value of 100; data are expressed as the mean±SD of 6 experiments with duplicate wells.

The conditions of series [9]: ciliary extracts; cited from earlier work.
In series [10] the test system is leukocyte migration into the CSF. Description: Anti-inflammatory activity in rabbits with meningitis (FIG. 5, FIG. 6). The class given is in vivo, rabbit. Conditions: intravenous. The text has this: This inhibitory activity implies that antibodies to FHA which bind to any of the three Factor X regions would disturb leukocyte recruitment. This is to be distinguished from anti-FHA antibodies that bind to endothelia by recognizing an integrin receptor which is an endothelial cell component (see below). […] This is shown in FIG. 6 where various doses of antibody were given to rabbits and the number of leukocytes recruited into the cerebrospinal fluid in response to pneumonoccal meningitis was determined.

As usually defined, the IC50 is the concentration that inhibits the measured activity by half. A low value points to greater potency.

T1 sequence (P05107 23-769, other chains not shown): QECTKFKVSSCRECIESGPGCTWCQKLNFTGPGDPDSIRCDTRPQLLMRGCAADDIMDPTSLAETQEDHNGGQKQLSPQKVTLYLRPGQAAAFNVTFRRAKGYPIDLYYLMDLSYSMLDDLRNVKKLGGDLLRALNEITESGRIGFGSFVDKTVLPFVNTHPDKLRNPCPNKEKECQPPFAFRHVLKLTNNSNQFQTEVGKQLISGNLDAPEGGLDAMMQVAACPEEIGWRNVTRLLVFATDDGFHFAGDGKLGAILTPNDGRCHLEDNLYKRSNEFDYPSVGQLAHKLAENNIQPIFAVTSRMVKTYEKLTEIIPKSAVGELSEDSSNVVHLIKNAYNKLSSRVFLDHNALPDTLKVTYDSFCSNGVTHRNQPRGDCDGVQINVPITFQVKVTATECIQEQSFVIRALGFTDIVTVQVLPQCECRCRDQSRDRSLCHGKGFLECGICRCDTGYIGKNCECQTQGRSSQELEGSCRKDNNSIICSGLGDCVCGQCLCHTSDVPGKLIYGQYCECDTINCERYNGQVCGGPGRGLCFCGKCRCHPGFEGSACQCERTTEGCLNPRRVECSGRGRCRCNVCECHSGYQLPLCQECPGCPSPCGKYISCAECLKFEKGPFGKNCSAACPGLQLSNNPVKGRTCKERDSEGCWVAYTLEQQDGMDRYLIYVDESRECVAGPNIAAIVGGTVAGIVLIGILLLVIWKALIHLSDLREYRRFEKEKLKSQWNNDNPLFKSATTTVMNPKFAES

As for GYDTKQEDG [Factor X II], the IC50 in [1] was 500 µM. In series [2], the “inhibition of binding of CR3 bearing cells to Factor X (in words)” value is given as “competitively inhibit the binding of CR3 bearing tissue culture cells to purified Factor X”.
With Ac-ETKEVDG-NH2 [Acetyl/Amide-FHA II], in series [3] (48 hours), the “stability in plasma (in words)” value is listed as “remained unchanged over 48 hours”. Moreover, the neutropenia result in [4] is recorded as “No neutropenia was observed”.
Turning to ETKEVDG [FHA II], in [1], the IC50 is 10 µM and the “inhibition of 125I-Factor X binding to neutrophils” value is 87±8%. In [3], the “time in which concentration decreased by half” value lay within 4 to 6 h.
Turning to GTLLLRNDALTENGTVTISA [FHA Cd], the “downmodulation of CD11b/CD18 (in words)” value in series [5] is listed as “no significant effect”.
With RGDPHQGVLAQGDIIMDAKG [FHA Ca], in series [6], the “volume of the infarct” value was “approximately 25 % of the hemisphere”. Further, the “reduction of binding of C3bi-coated erythrocytes to macrophages” value in [5] (IB4 50 μg/ml) amounted to 61±7%. The BBB permeability is on record as 5.8 ± 2.7% in series [7] (50 nmol) and 3.0 ± 2.2% in series [7] (100 nmol). Besides, the “Inhibition of blood-brain barrier permeability (in words)” value in series [7] (rat, in vivo) is listed as “appeared to be dose dependent”. Further, in series [4], the neutropenia entry was “No neutropenia was observed”.
Turning to “native FHA: Filamentous hemagglutinin, 220kD surface associated protein of Bordetella pertussis (List Biologicals)”, in series [1], the IC50 stood at 0.1 µM and the “inhibition of 125I-Factor X binding to neutrophils” value is listed as 70±4%. Further, the “block of binding of 12.1F9 to E^C3bi (in words)” value in series [8] was “blocked binding almost completely”. Moreover, the Adherence index in series [8] (normalized to control value of 100, 6 experiments) is recorded as 16 ± 16. Moreover, in [9], the “binding to lactosylceramide (in words)” value is “binds to lactosylceramide”. Besides, the “antiinflammatory activity in meningitis (in words)” value in [10] is “antiinflammatory activity in the sense of inhibiting leukocyte migration into the CSF”.
As to RADPHQGVLAQGDIIMDAKG [FHA Cb], the “downmodulation of CD11b/CD18 (in words)” value in series [5] is on record as “no significant effect”.
On the same count and under the same terms, the value for AADPHQGVLAQGDIIMDAKG [FHA Cc] was “no significant effect”.
